{
  "source": "patent US12257334B2",
  "about": "“Oral care compositions” (Colgate-Palmolive Company, priority 2015, dated 2025)",
  "key": {"[1]": {"assay": "Stabilization with multi-charged species: redissolving the DV-CHX precipitate", "assay_type": "physicochemical", "settings": "with significant stirring time", "source_text": "Stabilization with Multi-Charged Species: The addition of DV to a solution of CHX causes an immediate precipitation. However, the addition of low levels of surfactants or multi-charged compounds brings both DV and CHX back into solution. The table below lists multiple compounds that help to redissolve the DV-CHX, and what we have found as their lowest effective levels. These solutions are stable from pH 4.9-7. Addition of citric acid to lower the pH to <4.9 causes significant precipitation."}, "[2]": {"test_system": "mixed species inoculum culture containing: Lactobacillus casei, Streptococcus oralis, Actinomyces viscosus, Veillonella parvula & Fusobacterium nucleatum", "assay_type": "cell-based", "experimental": "Bacterial kill: A 20-second short interval kill test (SIKT) measures the efficacy of various treatment solutions in killing oral pathogens. […] A mixed species inoculum culture containing: Lactobacillus casei, Streptococcus oralis, Actinomyces viscosus, Veillonella parvula & Fusobacterium nucleatum at an optical density of 0.5 @ 610nm is centrifuged. The supernatant is then aspirated off and the remaining pellicle re-suspended in sterile phosphate buffered saline (PBS). 100 ul of this solution is then treated with 100 ul of test sample for 30 or 60 seconds. Immediately following treatment, the exposure is neutralized by adding 1.3 ml of sterile D/E neutralizing broth. The neutralizing broth is then rinsed off by centrifugation and re-suspension in PBS. 50 ul samples are then transferred in triplicate to a 96-well microplate. The fluorescent dyes are then prepared per the manufacturer's directions and added to the samples. The fluorescence is then measured in a fluorescent plate reader. Data from this assay are presented as a percentage of bacterial remaining viable relative to a control sample treated with PBS."}, "[3]": {"settings": "aqueous solution, no net charge; cited from earlier work"}},
  "data": [
    {"smiles": "C[N+](C)(C)CC(=O)O", "note": "[Betaine]", "values": [
      {"measurement": "Lowest effective level", "setting": "[1]; added to solution of 0.12% CHX and 1.025 DV (w/w by actives)", "value": 0.3, "unit": "% for 0.12% CHX"},
      {"measurement": "Lowest effective level", "setting": "[1]; added to solution of 0.2% CHX and 1.025 DV (w/w by actives)", "value": 0.3, "unit": "% for 0.2% CHX"}
    ]},
    {"smiles": "CCO", "note": "[Dead, ethanol]", "values": [
      {"measurement": "% viability", "setting": "[2]", "value": 36.3, "unit": "%"}
    ]},
    {"smiles": "NCCCC[C@H](N)C(=O)O", "note": "[lysine]", "values": [
      {"measurement": "isoelectric point", "setting": "[3]", "value": 9.7, "unit": "pH"}
    ]}
  ]
}
